Laboratory results reported in patent publication US7019139B2, “Quinolinones and uses thereof” (ARIAD Pharmaceuticals, Inc., priority 2001, dated 2006).

Experiment: Hydroxyapatite assay (hydroxyapatite adsorption chromatography, bone-targeting potential)
Assay type: binding
Conditions: corrected K = (retention time-void time)/void on TSK-Gel HA 1000 HPLC column; linear gradient 10 mM to 500 mM sodium phosphate, 0.15 N NaCl, pH 6.8
Protocol: Hydroxyapatite is the principal mineral component of bone. Hydroxyapatite adsorption chromatography is used as an assay to evaluate the bone-targeting potential of both individual bone-targeting moieties (“monomers”) and of pharmaceuticals incorporating bone-targeting groups.
This K value is corrected using two reference compounds to correct from inter-column and inter-system variation to obtain a K′ value.
Reference Compounds: K′ values were determined for known bone targeted compounds, the bisphosphonate, alendronate and tetracycline.

NCCCC(O)(P(=O)(O)O)P(=O)(O)O [Alendronate, alendronate]
K′ value: 3.7
